# Measured values taken from US11510886B2, “Metformin amino acid compounds and methods of using the same” (Laboratorios Silancs S.A. DE C.V., priority 2016, dated 2022).
# Where two headings read alike, the source gives them in different places.
# Tests used:
# [1] = system: blood glucose level; assay: Effect of metformin compounds on the glucokinetic profile after oral glucose overload; type: in vivo, Rat; conditions: for Blood glucose level, 3 h post-glucose overload: *p<0.05, **p<0.01 vs vehicle
# [2] = terms of European Pharmacopeia 7.0 section 5.11
# [3] = rat, in vivo, po, 250 mg/kg
# [4] = for Body weight (g) On administration day / Body weight (g) On distribution day / Body weight (g) On first administration day: Mean ± SD; for Body weight (g) On distribution day: before dosing
# [5] = STZ-diabetic male rats, mean ± SD; for Absolute body weight, Day −3 (before STZ administration): baseline before STZ and before first TI/RI administration; for Absolute body weight, Day −1 / Absolute body weight, Day −2 (distribution of groups): before first TI/RI administration
# [6] = system: rat model of streptozotocin-induced diabetes; assay: Blood glucose levels in rat model of streptozotocin-induced diabetes, 14 days oral; conditions: for Blood glucose levels before TI/RI administration, Day −1: STZ-diabetic rats, before first TI/RI administration, n.d. = all values beyond ULOD of glucometer (600 mg/dl), § n=1, ¢ n=2; for Blood glucose levels before TI/RI administration, Day −1 / Blood glucose levels before TI/RI administration, Day −3 (before STZ administration): mean ± SD; for Blood glucose levels before TI/RI administration, Day −3 (before STZ administration): rats, baseline before STZ and before first TI/RI administration
# [7] = system: rat model of streptozotocin-induced diabetes; conditions: about 18 hours after last administration, fasted; Dunnet test
# [8] = diabetic rats, 14 days daily oral
# [9] = system: GLUT4; assay: GPBP-1 and GLUT4 distribution in C2C12 cells (FIGS. 77 and 78); type: cell-based, Mice
# Procedure: FIG. 77. Effects of no treatment, insulin, SLN1, SLN1 and insulin, SLN10, and SLN10 and insulin on GPBP-1 and GLUT-4 distribution in non-fused C2C12 cells after a 30 minute treatment.
# FIG. 78. C2C12 cells that expressed GLUT4-GFP constitutively were incubated with SLN1 or SLN10 10 mM, or with the corresponding vehicle (control), and GLUT4 distribution was analyzed by using immunofluorescence and confocal microscopy.
# [10] = system: GPBP, LKB1/STRADα/MO25, AMPK, AS160; assay: In vitro phosphorylation of GPBP with LKB1 complex, AMPK and AS160; conditions: LKB1 complex without GPBP
# [11] = system: C2C12 myotubes; assay: Glucose in C2C12 myotubes cultured with M1 macrophage conditioned medium; type: cell-based, Mice; conditions: macrophages treated with 10 mM; glucose adjusted to 100 mg/100 mL (FIG. 95)
# Procedure: FIG. 95. C2C12 myotubes, treated with a conditioned RAW264.7 M1 macrophages medium (stimulated with LPS and IFN-γ [M1]), accumulate glucose in the culture medium: SLN compounds reduce the “hyperglycemic” effect of the M1 medium. […]; then, the culture media were collected, and their glucose concentration adjusted to 100 mg/100 mL and used to culture C2C12 myoblasts that had been previously differentiated to myotubes in DMEM supplemented with 2% horse serum for 5 days. The glucose concentration in myotubes was determined at several times with a Glucocard (Arkray). C2C12 myotubes, cultured with conditioned media of non-stimulated (cells) macrophages, or similarly stimulated but not treated with a SLN (M1), were used as controls. The initial glucose levels (time 0) are used as a reference (100%) in each of the series.
# […]. Then the culture media were collected, their glucose concentration adjusted to 100 mg/100 mL and used to culture C2C12 myoblasts that had been previously differentiated to myotubes in DMEM supplemented with 2% horse serum for 5 days. The glucose concentration of the myotube cultures was determined at different times with Glucocard (Arkray). The controls used were the C2C12 cultured with media conditioned with no stimulated macrophages (cells) or with M1 conditioned media. The initial glucose levels (time 0) were used as a reference (100%) in each series.
# [12] = rat, 750 mg/kg referred to metformin base, mean ± SD, *p<0.05 vs vehicle
# [13] = rat, 750 mg/kg referred to metformin base, mean ± SD
# [14] = Groups L-U, 750 mg/kg, first column of this head
# [15] = Groups L-U, 750 mg/kg, second column of this head
Compound,"Blood glucose level, 0.25 h post-glucose overload [1, 12] [mg/dL]","Blood glucose level, 0.5 h post-glucose overload [1, 13] [mg/dL]","Blood glucose level, 2 h post-glucose overload [1, 13] [mg/dL]","Blood glucose level, 3 h post-glucose overload [1, 13] [mg/dL]","Blood glucose level, 4 h post-glucose overload [1, 12] [mg/dL]","Blood glucose level, 6 h post-glucose overload [1, 13] [mg/dL]","Blood glucose level, pre-glucose overload [1, 12] [mg/dL]",AUC(0-24) [3] [µg·h/mL],Cmax [3] [ng/mL],"Metformin base concentration in plasma, 0.5 h post-administration [3] [µg/mL]","Metformin base concentration in plasma, 1 h post-administration [3] [µg/mL]","Metformin base concentration in plasma, 2 h post-administration [3] [µg/mL]","Metformin base concentration in plasma, 4 h post-administration [3] [µg/mL]","Metformin base concentration in plasma, 8 h post-administration [3] [µg/mL]","Metformin base concentration in plasma, 24 h post-administration [3] [µg/mL]","Body weight (g) On administration day ([4]; Groups B-K, 250 mg/kg) [g]","Body weight (g) On distribution day ([4]; Groups B-K, 250 mg/kg) [g]","Body weight (g) On distribution day ([4]; Groups L-U, 750 mg/kg) [g]","Body weight (g) On first administration day [4, 14] [g]",GLUT4 distribution [9],also measured
"CN(C)C(=N)NC(=N)N.NC(=O)C[C@H](N)C(=O)O [Metformin asparaginate, metformin asparaginate]",94.50 ± 24.31,93.75 ± 19.14,80.00 ± 10.68,86.50 ± 2.65,87.00 ± 8.60,78.50 ± 16.03,86.50 ± 14.62,153.76,16270,10.72 ± 2.33,8.40 ± 1.12,9.74 ± 1.24,16.27 ± 2.89,7.56 ± 1.49,0.39 ± 0.13,191.98 ± 10.26,186.85 ± 11.32,188.40 ± 10.50,201.60 ± 5.61,–,"blood glucose level vs vehicle, after the oral glucose overload ([1]; 750 mg/kg for five days, glucose 3 g/kg, isolated time points 0.25-4 hours, Dunn's test): statistically significant decreases; Physical form (hygroscopicity) [2]: Deliquescent; Body weight (g) On first administration day [4, 15]: 196.93 ± 10.40 g; Absolute body weight, Day −3 (before STZ administration) [5]: 233.47 ± 15.23 g; Absolute body weight, Day −1 [5]: 209.73 ± 12.66 g; Absolute body weight, Day −2 (distribution of groups) [5]: 214.13 ± 12.67 g; Blood glucose levels before TI/RI administration, Day −1 [6]: 573.00^§ ± n.d.^§ mg/dL; Blood glucose levels before TI/RI administration, Day −3 (before STZ administration) [6]: 116.33 ± 5.51 mg/dL; plasma glucose levels at the time of sacrifice [7]: significantly higher"
"CC(C)[C@H](N)C(=O)O.CN(C)C(=N)NC(=N)N [Metformin valinate, metformin valinate]",102.50 ± 12.07,101.00 ± 14.90,97.00 ± 14.54,93.50 ± 18.91,86.50 ± 10.15,92.75 ± 5.56,90.25 ± 3.86,123.05,13700,8.75 ± 0.50,11.56 ± 2.71,12.90 ± 2.38,13.70 ± 2.55,4.79 ± 0.38,0.21 ± 0.09,193.85 ± 7.65,186.67 ± 11.37,190.28 ± 6.26,206.48 ± 10.52,–,"Blood glucose level, 1 h post-glucose overload ([1]; rat, 750 mg/kg referred to metformin base, 1 h post-glucose overload, mean ± SD, *p<0.05 vs vehicle): 100.25 ± 15.44 mg/dL; Physical form (hygroscopicity) ([2]; listed as 14. VALINE): Hygroscopic solid; Physical form (hygroscopicity) ([2]; listed as valine): hygroscopic; macroscopic necropsy findings ([4]; 750 mg/kg for five days): small additional lobe; Body weight (g) On first administration day [4, 15]: 194.90 ± 4.71 g; Absolute body weight, Day −3 (before STZ administration) [5]: 233.50 ± 9.71 g; Absolute body weight, Day −1 [5]: 213.90 ± 16.31 g; Absolute body weight, Day −2 (distribution of groups) [5]: 217.43 ± 14.43 g; mortality [8]: found dead on the day 9 of study; Blood glucose levels before TI/RI administration, Day −1 [6]: 592.00^§ ± n.d.^§ mg/dL; blood glucose levels 2 hours after administration on day 2 vs diabetic animals treated with vehicle ([6]; diabetic rats, 250 mg/kg as metformin base): significantly lower blood glucose levels; Blood glucose levels before TI/RI administration, Day −3 (before STZ administration) [6]: 120.00 ± 1.73 mg/dL; plasma glucose levels at the time of sacrifice [7]: significantly higher"
"CN(C)C(=N)N=C(N)N [metformin, 3-(diaminomethylidene)-1,1-Dimethylguanidine]",–,–,–,–,–,–,–,–,–,–,–,–,–,–,–,–,–,–,–,levels lower than insulin,LKB1 autophosphorylation and STRADα phosphorylation [10]: trigger a discrete LKB1 autophosphorylation
Metformin glycinate,–,–,–,–,–,–,–,–,–,–,–,–,–,–,–,–,–,–,–,very intense accumulation of GLUT4 in the perinuclear region and in the plasma membrane,glucose concentration in myotubes kept in M1 macrophage-conditioned medium [11]: kept values at “normoglycemic” levels
"insulin: insulin, comparator for GLUT4 distribution",–,–,–,–,–,–,–,–,–,–,–,–,–,–,–,–,–,–,–,GLUT4 distribution to the cell membrane increased,–
